Results from patent US11498853B2, “Water with switchable ionic strength” (QUEEN'S UNIVERSITY AT KINGSTON, priority 2010, dated 2022).
Where “and” joins values, the source holds several entries; their conditions need not be identical. Equal values may be shown once. Read-outs that look alike come from different tables or passages of the source.

Assays:
[1] = Miscibility of diamines and triamines with water in presence and absence of CO2; format: physicochemical; conditions: 5:1 w/w water and liquid additive; for Miscibility with water, After addition of CO2: CO2 90 min; for Miscibility with water, Before addition of CO2: room temperature
Protocol: A 5:1 w/w solution of water and the liquid additive (total volume 5 m) were mixed together in a glass vial at room temperature. Whether the mixture formed one or two liquid phases was visually observed. Then CO2 was bubbled through the mixture via a single narrow gauge steel needle at a flow rate of ˜5 ml min^−1 for 90 min. Whether the mixture formed one or two phases was visually observed.

[2] = Reversible protonation of amine additives in H2O monitored by conductivity; format: physicochemical
Protocol: 1:1 w/w H2O and THEED was used because a 1:1 v/v solution was too viscous to pour accurately. A trigger gas chosen from CO2, air or nitrogen was bubbled at identical flow rates through the solution via a narrow gauge steel tube and the conductivity of the solution was measured periodically using a Jenway 470 Conductivity Meter (Bibby Scientific, NJ, US) having a cell constant of 1.02 cm^−1.
The deprotonation reactions of the ionic solutions of additives in water were monitored in a similar manner, and the conductivity plot is shown in FIG. 8.
1:1 v/v solutions of the various additives and distilled, deionised water were prepared in six dram glass vials and transferred to a fritted glass apparatus which acted as a reaction vessel. The fritted glass apparatus consisted of a long narrow glass tube leading to a fine glass frit having a diameter of approximately 4 cm. The other end of the glass frit was connected to a cylindrical glass tube which held the solution of the additive during contacting with the trigger gas. This apparatus allowed a multiple source of trigger gas bubbles to contact the solution, compared to the single point source of Example 5.
A trigger gas chosen from CO2, air or nitrogen was bubbled through the solution via the glass frit at a flow rate of 110 ml min^−1 as measured by a J&W Scientific ADM 2000 Intelligent Flowmeter (CA, USA). For each conductivity measurement, the solution was transferred back to a six dram vial, cooled to 298 K and measured in triplicate. Conductivity measurements were performed using a Jenway 470 Conductivity Meter (Bibby Scientific, NJ, US) having a cell constant of 1.02 cm^−1.

[3] = Separation of THF from aqueous phase and retention of additive on switching with CO2, by 1H NMR; format: physicochemical
Protocol: (§1) The volumes of each phase were recorded.
The graduated cylinders were capped with rubber septa. […] A second narrow gauge steel tube was provided to vent the gaseous phase.
as §1

[4] = Degree of protonation/deprotonation of amine additives in D2O by 1H NMR; conditions: 0.1 M in D2O; for degree of protonation by CO2: room temperature
Protocol: In order to establish the chemical shifts of the protonated bases, molar equivalents of several strong acids, including HCl and HNO3, were added to separate solutions of the amines dissolved in D2O. ^1H NMR spectra were acquired on a Bruker AV-400 NMR spectrometer at 400.3 MHz for three replicate solutions of each amine. An average value of each chemical shift for each protonated base was calculated along with standard deviations. […] The ^1H NMR chemical shifts of the unprotonated amines were also measured.
The amine was dissolved in D2O in an NMR tube and sealed with a rubber septa. The spectrum was then acquired. Subsequently, two narrow gauge steel needles were inserted and gas was gently bubbled through one of them into the solution at approximately 4-5 bubbles per second. The second needle served as a vent for the gaseous phase.
Firstly CO2 was bubbled through the solution for the required length of time and then the spectrum was re-acquired. This process was repeated. The % protonation of the amine was determined from the observed chemical shifts by determining the amount of movement of the peaks from the normal position for the unprotonated amine towards the position expected for the fully protonated amine.
Nitrogen gas was flushed through the solution at 75° C.
In order to establish the chemical shifts of the protonated bases, molar equivalents of several strong acids, including HCl and HNO3, were added to separate solutions of the tetraamine dissolved in D2O. ^1H NMR spectra were acquired on a Bruker AV-400 NMR spectrometer at 400.3 MHz for three replicate solutions of the amine. An average value of each chemical shift for each protonated base was calculated along with standard deviations. […] The ^1H NMR chemical shifts of the unprotonated amine were also measured. […]

[5] = 0.80 molal
Protocol: The methylated spermine was investigated as additive for switchable ionic strength solutions. To measure the extent of THF being forced out of an aqueous phase by an increase in ionic strength, and the amounts of amine, which remained in the aqueous phase, 1:1 w/w solutions of THF and water were prepared in graduated cylinders. The appropriate mass of amine additive to result in a 0.80 molal solution was added and the cylinders were capped with rubber septa. […] The volumes of each phase were recorded. Aliquots of the non-aqueous and aqueous layers were taken and dissolved in d3-acetonitrile in NMR tubes. A known amount of ethyl acetate was added to each NMR tube as an internal standard. ^1H NMR spectra were acquired and through integration of the ethyl acetate standard, a concentration of THF or additive was calculated and scaled up to reflect the total volume of the aqueous or non-aqueous phase giving a percentage of the compound being forced out or retained. Then argon was bubbled through the solution while heating to 50° C. until the two phases recombined (15 to 60 min). The whole switching process (30 min CO2, sample take, then another 30 min of Ar) was repeated.

[6] = Salting out THF from water using secondary amine additives, 1H NMR; format: physicochemical; conditions: 1.60 molal, 1:1 w/w THF:water, 30 minutes CO2
Protocol: N-tert-Butylethanolamine and N-ter-butymethylamine were investigated as additives for switchable ionic strength solutions. […] The volumes of each phase were recorded. […] The recombining of the phases when N-tert-butymethylamine was used as an additive was not successful at 30 min but was achieved by 2 h at a higher Ar flow rate of 15 mL/min. THF was added afterwards to replace the amount of THF being evaporated during the procedure.

[7] = Zeta potential of suspended clay fines in switchable water; format: physicochemical; conditions: Kaolinite
Protocol: (§2) Clay fines were weighed and placed into individual vials (0.025 g, Ward's Natural Science Establishment). Kaolinite and montmorilonite were used as received, but as illite day was ground into a powder using a motar and pestle. Solutions containing additives were made with deionized water (18.2 MΩ/cm, Millipore) and 10 ml was added to the clay fines. A suspension was created using a vortex mixer and subsequently dispensed into a folded capillary cell. The zeta potential was measured using a Malvern Zetasizer instrument. The errors reported on the zeta potential values were the standard deviations of the zeta potential peaks measured.
(§3) Unless specified, all carbon dioxide treatments were conducted with the aqueous solutions prior to addition to day fines. For applicable measurements, ultra pure carbon dioxide (Supercritical CO2 Chromatographic Grade, Paxair) was bubbled through the solutions using a syringe.
Another experiment was performed in which CO2 was bubbled through a 1 mM aqueous solution of TMDAB that already contained clay fines (a method referred to as “switching in situ”).

[8] = as above; format: physicochemical
Protocol: as §2, §3

[9] = Expulsion of THF from water and removal of additive from the aqueous phase; format: physicochemical; conditions: for additive removed from the aqueous phase after N2 treatment: separated aqueous phase, N2 90 minutes, 60° C.
Protocol: 1.50 g H2O, 1.50 g THF, and 0.30 g N,N,N′N′-tetraethyl-1,4-diaminobutane (TEDAB) were mixed together in a graduated cylinder to generate a single phase solution. […] A small stir bar was added to the solution and the cylinder was capped with a rubber septa. The following procedure was run in triplicate with a new sample (of the same contents shown above) each time.
A long, narrow gauge needle was inserted through the septa into the solution. […] CO2 was bubbled through the solution a flow rate of about 5 ml/min for 45 minutes with stirring until a 2nd phase creams out on top of the aqueous phase. The CO2 bubbling was stopped and the needles withdrawn. The cylinder was immersed in a hot water bath for several seconds to facilitate the separation of the liquid phases. Both phases were clear and yellow in colour.
The organic phase was decanted off giving a mass of 1.253 g (density=0.84 g/m).
A 39.1 mg sample of the organic phase was placed in an NMR tube with deuterated acetonitrile and 50.2 mg ethyl acetate to act as an internal standard. A 66.2 mg sample of the aqueous phase was placed in a 2nd NMR tube with deuterated acetonitrile with 22.3 mg ethyl acetate to act as an internal standard. A ^1H NMR spectra was acquired and knowing the corresponding amount of ethyl acetate in each sample the resulting amounts of THF in the aqueous sample and additive in the organic sample can be calculated. Knowing the mass, volume, and density of each layer, the total amount of THF or additive in a respective layer can be calculated.
1.943 g (1.90 ml) of the aqueous phase was returned to the same graduated cylinder. The needles and septa were put back into the cylinder and the cylinder was immersed in a 60° C., water bath. N2 was introduced in the same fashion as CO2 preformed previously and the N2 was bubbled through the solution for 90 minutes where a deep yellow organic phase creams out of the aqueous phase.
A 37.9 mg sample of the aqueous phase was taken up in an NMR tube with deuterated acetonitrile and 41.5 mg ethyl acetate to act as an internal standard.

[10] = Solvent switching of diamidine/water system, 1H NMR; format: physicochemical; conditions: 0.80 molal, 30 minutes CO2
Protocol: The diamidine was investigated as additive for switchable ionic strength solutions. […] The volumes of each phase were recorded.

[11] = 1:1 v/v additive:water, 25° C., glass frit
[12] = 1:1 v/v, N2 at 80° C., glass frit
[13] = 0.80 molal additive, 1:1 w/w THF:H2O, 30 min CO2, in aqueous phase

In the case of `CN(C)CC1CC(CN(C)C)CC(CN(C)C)C1` (stereo not drawn) [1,3,5-cycloC6H9(CH2NMe2)3, 1,1′,1″-(cyclohexane-1,3,5-triyl)tris(N,N,-dimethylmethanamine)], the “Miscibility with water, After addition of CO2” value [1] is reported as “miscible” and the “Miscibility with water, Before addition of CO2” value [1] is reported as “immiscible”.
In the case of `CN(C)CCN(C)CCN(C)CCN(C)C` [HMTETA, 1,1,4,7,10,10-hexamethyl triethylenetetramine], the “conductivity on CO2 bubbling” value [2, 11] is reported as “lower conductivities than TMDAB”, the “conductivity of ionic form after 20 minutes of N2” value [2, 12] is reported as “close to zero” and the “% Additive Retained” value [3, 13] is reported as 99.3 ± 0.4%. The “% Additive Retained” value ([3]; THF:H2O:Additive 3:3:1 w/w/w) was 95.6 ± 1.5%, the “% Additive Retained” value ([3]; THF:H2O:Additive 5:5:1 w/w/w) was 98.4 ± 1.2% and the “% Additive Retained” value ([3]; THF:H2O:Additive 10:10:1 w/w/w) was 98.0 ± 1.0%. The “% Additive Retained” value ([3]; THF:H2O:Additive 15:15:1 w/w/w) was 98.2 ± 0.3%.
In the case of `OCCN(CCO)CCN(CCO)CCO` [THEED, N, N, N′, N′-tetrakis(2-hydroxyethyl) ethylenediamine], the degree of deprotonation ([4]; N2 bubbling at 75° C., 2 hours (120 minutes)) is reported as 98% and the “degree of protonation by CO2” value ([4]; by 10 minutes) is reported as 49%.
With `CN(C)CCCN(C)CCCCN(C)CCCN(C)C` [MeSpe, N^1,N^1′-(butane-1,4-diyl)bis(N^1,N^2,N^3-trimethylpropane-1,3-diamine)] the “Additive retained in THF” value ([5]; 30 min CO2, run 1) was 99.85%, the “Additive retained in THF” value ([5]; 30 min CO2, run 2) was 99.79% and the “degree of protonation by CO2” value [4] was 93%.
In the case of `CNC(C)(C)C` [N-tert-butymethylamine], the “Additive retained in H2O” value [6] is reported as 99.75 ± 0.04%.
With `CC(O)CN(CCCN(C)C)CCCN(C)C` (stereo not drawn) [DMAPAP] the “Zeta Potential” value ([7]; 0.8 molal additive) was −24.3 ± 2.29 mV, the “Zeta Potential” value ([7]; 0.8 molal additive + 1 h CO2) was −3.99 mV and the “conductivity on CO2 bubbling” value [2, 11] was “lower conductivities than TMDAB”. For the same compound, the “% Additive Retained” value [3, 13] was 98.8 ± 0.4%, the “% Additive Retained” value ([3]; THF:H2O:Additive 3:3:1 w/w/w) was 87.1 ± 7.3% and the “% Additive Retained” value ([3]; THF:H2O:Additive 5:5:1 w/w/w) was 98.4 ± 0.4%. For the same compound, the “% Additive Retained” value ([3]; THF:H2O:Additive 10:10:1 w/w/w) was 96.0 ± 0.8%, the “% Additive Retained” value ([3]; THF:H2O:Additive 15:15:1 w/w/w) was 94.4 ± 1.1% and the “Zeta Potential” value ([8]; Illite, 0.8 molal additive) was −19.1 ± 3.92 mV. The “Zeta Potential” value ([8]; Illite, 0.8 molal additive + 1 h CO2) was −1.87 mV, the “Zeta Potential” value ([8]; Montmorillonite, 0.8 molal additive) was −16.8 ± 4.64 mV and the “Zeta Potential” value ([8]; Montmorillonite, 0.8 molal additive + 1 h CO2) was −2.99 mV.
In the case of `CN(C)Cc1cc(CN(C)C)cc(CN(C)C)c1` [1,3,5-C6H3(CH2NMe2)3, N,N,N′,N′,N″,N″-1,3,5-benzenetrimethanamine], the “Miscibility with water, After addition of CO2” value [1] is reported as “miscible” and the “Miscibility with water, Before addition of CO2” value [1] is reported as “miscible”.
For `CCCN(CC)CCCCN(CC)CCC` [PrEtNCH2CH2CH2CH2NPrEt, N,N′-diethyl-N,N′-dipropyl-1,4-diaminobutane], the “additive removed from the aqueous phase after N2 treatment” value [9] was 81%, the “Miscibility with water, After addition of CO2” value [1] was “miscible” and the “Miscibility with water, Before addition of CO2” value [1] was “immiscible”.
In the case of `CN(C)CCCCN(C)C` [TMDAB, N, N, N′, N′-tetramethyl-1,4-diaminobutane], the reduction of conductivity ([2]; 1:1 v/v H2O:amine, 90 minutes, 80° C., N2 through a glass frit) is reported as “approximately 95%”, the “rate of conductivity increase on CO2 bubbling” value [2, 11] is reported as “highest rate of conductivity increase” and the “rate of conductivity decrease on N2 flushing” value [2, 12] is reported as “highest”. For the same compound, the “% Additive Retained” value [3, 13] was 99.2 ± 0.4%, the “% Additive Retained” value ([3]; THF:H2O:Additive 3:3:1 w/w/w) was 87.1 ± 2.1% and the “% Additive Retained” value ([3]; THF:H2O:Additive 5:5:1 w/w/w) was 99.8% and 99.6 ± 0.1%. The “% Additive Retained” value ([3]; THF:H2O:Additive 10:10:1 w/w/w) was 99.4 ± 0.1% and the “% Additive Retained” value ([3]; THF:H2O:Additive 15:15:1 w/w/w) was 98.4 ± 0.4%.
With `CC(C)(C)NCCO` [N-tert-butylethanolamine] the “Additive retained in H2O” value [6] was 99.84 ± 0.04%.
In the case of `CCN(CC)CCCCN(CC)CC` [TEDAB, N, N, N′, N′-tetraethyl-1,4-diaminobutane], the “additive residing in the aqueous phase after CO2 treatment” value ([9]; 1.50 g H2O, 1.50 g THF, 0.30 g additive, CO2 45 minutes) is reported as 91.1±3.7%, the “additive removed from the aqueous phase after N2 treatment” value [9] is reported as 49.3±6.3% and the “Miscibility with water, After addition of CO2” value [1] is reported as “miscible”. For the same compound, the “Miscibility with water, Before addition of CO2” value [1] was “immiscible”.
In the case of `C/C(=N\CCCC/N=C(\C)N(C)C)N(C)C` [DIAC, N,N-(butane-1,4-diyl)bis(N,N-dimethylacetimidamide)], the “additive retained in the aqueous phase” value [10] is reported as 99.5%.
In the case of `CCCN(CCC)CCCCN(CCC)CCC` [Pr2NCH2CH2CH2CH2NPr2, N,N,N′,N′-tetrapropyl-1,4-diaminobutane], the “Miscibility with water, After addition of CO2” value [1] is reported as “immiscible” and the “Miscibility with water, Before addition of CO2” value [1] is reported as “immiscible”.
